Where two headings read alike, the source gives them in different places.
Columns and labels:
[1] = system: regionally ischemic heart; details: for Myocardial enhancement: normal myocardium
Method: Sprague-Dawley rats (250-300 g) were anaesthetised with 50 mg/kg sodium pentobarbital and mechanically ventilated after tracheostomy. For bolus injection of the contrast agent, a catheter was placed in the femoral vein. In order to produce regional ischemia, left thoracotomy was performed followed by occlusion of the anterior branch of the left coronary artery. The potential of various doses of MnDPDP in demarcating regional ischemia was determined. Four groups of animals were designed, each group (n=7-8 rats) received one bolus dose (1 ml/kg) of MnDPDP (0.005, 0.010, 0.020, or 0.040 mmol/kg). MR imaging was performed between 15-20 mins after acute coronary occlusion.
ECG-gated inversion recovery echoplanar images were acquired using a GE Omega 2.0 T system and a home-built 5.6 cm birdcage imaging coil. A blipped EPI of 64×64 points to define a […] (FOV) of 40×40 mm was used. TE was set to 10 msec by acquiring an asymmetric echo. Inversion recovery was accomplished using a composite non-selective inversion pulse which was carefully optimized prior to administration of the contrast medium. Shortly after the occlusion of the coronary vessel (15-25 mins), IR EP imaging was used to monitor bolus passage of MnDPDP through the regionally ischemic heart. Fully relaxed T1-sensitive inversion recovery EP images (TR=5 s) were acquired in a set of 16 images. Then, 32 inversion-recovery echoplanar images every 2 secs were obtained with inversion time of 700 msecs (to nullify myocardial signal) to monitor the dynamic T1 changes in myocardial signal intensity during the passage of the contrast medium. Changes in myocardial signal as a function of time were plotted. ROIs were obtained from non-ischemic and ischemic myocardium as well as from LV chamber blood. ROIs were determined on images acquired post-contrast injection, where the ischemic region is clearly defined. Alterations in signal intensity were referred to that of fully relaxed intensity (=100%).
At the conclusion of the imaging protocol, the presence of coronary occlusion and acute ischemia was confirmed at postmortem by injecting 0.5 ml/kg phthalocyanine blue dye intravenously. Blue dye was then allowed to circulate for 3 mins before the heart was excised.

[2] = system: ex vivo guinea pig hearts; details: for T1 relaxation time: LV tissue, 0.234 T
Method: Guinea pigs (450-500 g) were anaesthetised with sodium pentobarbital (intraperiotenal injection 100 mg). Hearts were rapidly excised and connected to the aortic cannula of a standard Langendorff perfusion system with conditions preset at 37° C. Perfusion with glucose-containing Krebs Henseleit's bicarbonate buffer (Krebs buffer) was maintained in the constant flow mode during the entire experiment by use of a finely adjustable pump. Under normal perfusion conditions coronary flow rate (CFR) was […] and during global, low flow ischemia 0.25 ml/min (92% reduction of normal CFR). Left ventricular (LV) developed pressure (LVDP) was measured by use of a LV fluid-filled balloon connected to a pressure transducer and recording device. At the end of the experiments excised samples from the LV were freeze-clamped, freeze-dried and prepared for analysis of LV contents of Mn metal by atomic absorbtion spectrophotometry and of ATP by high pressure liquid chromatography. Fresh, non-clamped LV samples were taken for immediate (within 30 min) measurements of tissue longitudinal (T1) relaxation time by use of a Bruker Minispec PC 110 spectrometer operating at 0.234 T and at a proton frequency of 10 MHz.
In normal perfusion experiments (series A) hearts were subjected to a 20 min control period before being perfused for 5 min with ascending concentrations (0-3000 μM) of MnDPDP present in the Krebs buffer. This was followed by 5 min perfusion with buffer only to ensure an effective washout of residual extracellular MnDPDP. In global ischemia experiments hearts were perfused at low flow (92% CFR reduction) with normal Krebs buffer. After different durations (0, 15, 30, 90, and 120 min) of ischemia MnDPDP (1000 μM, 3000 μM) was included in the buffer for a final 5 min period of low flow ischemia. The experiments were ended by 5 min perfusion at normal flow with anoxic and calcium-free Krebs buffer to ensure washout of residual extracellular MnDPDP without reactivating normal cardiac function. In the results (series B) the ischemia durations are presented as 0-5 min, 15-20 min, 30-35 min, 90-95 min, and 120-125 min.

[3] = system: normal and reperfused infarcted myocardium; details: 90 minutes post injection
Method: Sprague-Dawley rats (female, 270-320 g, n=24) were subjected to occlusion of the anterior branch of the left main coronary artery for 60 minutes, followed by reperfusion for 120 minutes before injecting the test agent. A catheter was placed in the tail vein for administration of contrast media. Animals were connected to an ECG patient monitor and placed in the magnet such that the heart of each rat was at or near ioscenter. Magnetic field was optimized for a central slab of 6 mm thickness, within which the 2 mm section to be imaged was located. Inversion and slice select pulses were calibrated. Inversion recovery echo planar imaging was then used to measure baseline T1 values for myocardium and left ventricle chamber blood.
MnDPDP was then administered at doses of 25, 50 and 100 μmole/kg by intravenous injection of 2.5, 5 and 10 ml/kg, respectively, of the test solution which contained a 10 mM solution of MnDPDP. These injections were followed by a flush of physiologic saline solution (0.9%) such that the combined volumes of test agent and saline flush was 11 ml/kg. All injected solutions were warmed before being administered and were injected slowly over 1.5 mins. T1 values were remeasured at 5 minute intervals during the first 60 minutes after injection. Occasional animals were imaged at 90 minutes for T1 determination (EPI) and for visual inspection of contrast on STIR (short TI inversion recovery) prepared spin echo images.

[4] = MnDPDP 300 μM, versus control hearts
[5] = MnDPDP 1000 μM, versus control hearts
[6] = MnDPDP 3000 μM, versus control hearts

Structure (SMILES): Cc1ncc(COP(=O)(O)O)c(CN(CCN(CC(=O)[O-])Cc2c(COP(=O)(O)O)cnc(C)c2O)CC(=O)[O-])c1O.[Mn+2] [MnDPDP, manganese (II) chelate of N,N′-bis-(pyridoxal-5-phosphate)-ethylenediamine-N,N′-diacetic acid]
- delineation of the ischemic region ([1]; 0.005 mmol/kg): insufficient to provide clear delineation of the ischemic region
- delineation of the ischemic region ([1]; 0.010, 0.020, and 0.040 mmol/kg): the ischemic region was identified as a region of very low signal
- Myocardial enhancement ([1]; 5 micromole/kg bolus): 23±2 % of fully relaxed images
- Myocardial enhancement ([1]; 10 micromole/kg bolus): 28±2 % of fully relaxed images
- Myocardial enhancement ([1]; 20 micromole/kg bolus): 34±5 % of fully relaxed images
- Myocardial enhancement ([1]; 40 micromole/kg bolus): 48±4 % of fully relaxed images
- Tissue Mn content ([2]; MnDPDP 30 μM 5 min, then 5 min washout, n = 6, mean (SD)): 11.0(1.5) μmole/100 g dry wt
- T1 relaxation time ([2]; MnDPDP 30 μM, n = 6, mean (SD)): 871(93) msec
- Tissue Mn content ([2]; MnDPDP 100 μM 5 min, then 5 min washout, n = 6, mean (SD)): 12.2(2.4) μmole/100 g dry wt
- T1 relaxation time ([2]; MnDPDP 100 μM, n = 6, mean (SD)): 808(81) msec
- depression of LVDP ([2]; MnDPDP 300 μM): 10%
- Tissue Mn content ([2]; MnDPDP 300 μM 5 min, then 5 min washout, n = 6, mean (SD)): 23.2(4.1) μmole/100 g dry wt
- fold increase in Mn content [2, 4]: 5-6 fold
- reduction in T1 [2, 4]: 40%
- T1 relaxation time ([2]; MnDPDP 300 μM, n = 6, mean (SD)): 619(18) msec
- Tissue Mn content ([2]; MnDPDP 1000 μM 5 min, then 5 min washout, n = 6, mean (SD)): 45.4(10.8) μmole/100 g dry wt
- factor by which tissue Mn content was raised above the control level in non-treated hearts ([2]; MnDPDP 1000 μM at onset (0-5 min) of ischemia): 2-3
- Tissue Mn content ([2]; MnDPDP 1000 μM during last 5 min, ischemia 0-5 min, n = 4, mean (SD)): 10.5(3.6) μmole/100 g dry wt
- Tissue Mn content ([2]; MnDPDP 1000 μM during last 5 min, ischemia 15-20 min, n = 4, mean (SD)): 9.9(2.3) μmole/100 g dry wt
- Tissue Mn content ([2]; MnDPDP 1000 μM during last 5 min, ischemia 30-35 min, n = 4, mean (SD)): 4.3(1.6) μmole/100 g dry wt
- Tissue Mn content ([2]; MnDPDP 1000 μM during last 5 min, ischemia 90-95 min, n = 4, mean (SD)): 5.7(2.4) μmole/100 g dry wt
- Tissue Mn content ([2]; MnDPDP 1000 μM during last 5 min, ischemia 120-125 min, n = 4, mean (SD)): 5.6(2.3) μmole/100 g dry wt
- fold rise in Mn content [2, 5]: 11 fold
- reduction in T1 values [2, 5]: 55%
- T1 relaxation time ([2]; MnDPDP 1000 μM, n = 6, mean (SD)): 461(85) msec
- Tissue Mn content ([2]; MnDPDP 3000 μM 5 min, then 5 min washout, n = 6, mean (SD)): 70.4(14.9) μmole/100 g dry wt
- factor by which tissue Mn content was raised above the control level in non-treated hearts ([2]; MnDPDP 3000 μM at onset (0-5 min) of ischemia): 4-5
- Tissue Mn content ([2]; MnDPDP 3000 μM during last 5 min, ischemia 0-5 min, n = 4, mean (SD)): 16.5(2.4) μmole/100 g dry wt
- Tissue Mn content ([2]; MnDPDP 3000 μM during last 5 min, ischemia 15-20 min, n = 4, mean (SD)): 12.9(4.0) μmole/100 g dry wt
- Tissue Mn content ([2]; MnDPDP 3000 μM during last 5 min, ischemia 30-35 min, n = 4, mean (SD)): 6.0(2.2) μmole/100 g dry wt
- Tissue Mn content ([2]; MnDPDP 3000 μM during last 5 min, ischemia 90-95 min, n = 4, mean (SD)): 7.2(2.8) μmole/100 g dry wt
- fold rise in Mn content [2, 6]: 17 fold
- reduction in T1 values [2, 6]: 70%
- T1 relaxation time ([2]; MnDPDP 3000 μM, n = 6, mean (SD)): 341(46) msec
- tissue Mn contents, normal perfusion conditions relative to early ischemic conditions (0-5 min) ([2]; Table 1 versus Table 3): approximately 4 times
- LVDP after washout ([2]; following 5 min of MnDPDP washout): returns rapidly to control values
- LVDP during perfusion ([2]; higher concentrations of MnDPDP): falls rapidly
- tissue Mn content compared with normally perfused non-treated hearts ([2]; ischemic durations of 30-35 min, 90-95 min, and 120-125 min): not significantly different
- SI normal/SI infarct, conventional T1 weighted images ([3]; highest dose): 1.15
- SI normal/SI infarct, STIR sequences ([3]; lowest dose): 0.85-1.3
- SI normal/SI infarct, conventional T1 weighted images ([3]; lowest dose (n=1)): about 1.25

— patent publication US20020090341A1, “Method” (NYCOMED IMAGING AS, priority 1997, published 2002)
